Experimental data: patent US11205502B2, “Processing method and processing apparatus for efficacy of combined drug” (Institute of radiation medicine, academy of military …, priority 2015, dated 2021)

Test system: human lung cancer cell H460 lines
Assay: MTT method, inhibition of growth of H460 by etoposide, vincristine, 5-fluorouracil, adriamycin and three-drug combinations; expected additive effect by equivalent dose conversion
Assay type: cell-based
Details: for Efficacy of A / Efficacy of B / Efficacy of C: from fitted single-use equation
Source text: Title: there are many application schemes for a chemotherapeutic drug in lung cancer treatment. The chemotherapeutic drug in these schemes mainly includes the followings that belong to a topoisomerase inhibitor, a microtubule inhibitor, a metabolic inhibitor and an alkylating agent from types. One representative drug is successively selected from the four types of the drugs and respectively is etoposide (A), vincristine (B), 5-fluorouracil (C) and adriamycin (D). For any three combined application schemes, the inhibition effect to growth of human lung cancer cell H460 lines is detected with an MTT method. The three schemes successively are combinations of four combined drugs of A+B+C, A+B+D, A+C+D and B+C+D and the synergistic, additive and antagonistic effects are evaluated quantitatively. A:B:C=12.5:2:45 (μg/ml+μg/ml+μg/ml) A+B+C combination: A:B:D=12.5:2:4 (μg/ml+μg/ml+μg/ml) A+B+D combination: A:C:D=12.5:45:4 (μg/ml+μg/ml+μg/ml) A+C+D combination: B:C:D=2:45:4 (μg/ml+μg/ml+μg/ml) B+C+D combination:
For the etoposide (A), vincristine (B) and 5-fluorouracil (C), dose-effect relationship data of single drugs and dose-effect relationship data in the combined use A:B:C=12.5:2:45 (μg/ml+μg/ml+μg/ml), see a table 9 and a table 10.
Step 2, the dose is converted sequentially, and each dose-effect relationship data formed into an expected additive efficacy curve band under a combined condition is calculated.
The equivalent dose conversion is performed on combinations of two drugs of A+B, A+C and B+C sequentially first and then the equivalent dose conversion is performed on (A+B)+C, (A+C)+B and (B+C)+A. An expression for an expected additive effect of the three drugs in the combined use is as follows.
Y(A+B+C)=[Y(A+B)C, Y(A+C)+B, Y(B+c)+A] Hi^Lo↓, wherein Hi^Lo↓ Indicates function values of units in a number set and should be arranged from low to high. The Y(A+B+C)=[Y(A+B)+C, Y(A+C)+B, Y(B+c)+A]

[1] = A:B:C=12.5:2:45 fixed proportion

COc1cc([C@@H]2c3cc4c(cc3[C@@H](O[C@@H]3O[C@@H]5CO[C@@H](C)O[C@H]5[C@H](O)[C@H]3O)[C@H]3COC(=O)[C@H]23)OCO4)cc(OC)c1O [Etoposide (A), etoposide]
Efficacy of A (A 0.00004768 μg/ml): −1.3189% | Efficacy of A (A 0.00019073 μg/ml): 0.5342% | Efficacy of A (A 0.00076294 μg/ml): 3.2432% | Efficacy of A (A 0.00305176 μg/ml): 7.1153% | Efficacy of A (A 0.01220703 μg/ml): 12.4756% | Efficacy of A (A 0.048828125 μg/ml): 19.5765% | Efficacy of A (A 0.1953125 μg/ml): 28.4535% | Efficacy of A (A 0.78125 μg/ml): 38.7811% | Efficacy of A (A 3.125 μg/ml): 49.8373% | Efficacy of A (A 12.5 μg/ml): 60.6678% | dose range of the additive effect, etoposide (A) [1]: 1.8282 to 5.4883 µg/mL | inhibition at 0.000190735 µg/mL (Homo sapiens, NCI-H460, Etoposide (A) 0.000190735 μg/ml single use, read-out: Inhibition rate): 1.38% | inhibition at 0.000762939 µg/mL (Homo sapiens, NCI-H460, Etoposide (A) 0.000762939 μg/ml single use, read-out: Inhibition rate): 3.73% | inhibition at 0.00305176 µg/mL (Homo sapiens, NCI-H460, Etoposide (A) 0.003051758 μg/ml single use, read-out: Inhibition rate): -0.19% | inhibition at 0.012207 µg/mL (Homo sapiens, NCI-H460, Etoposide (A) 0.012207031 μg/ml single use, read-out: Inhibition rate): 16.7% | inhibition at 0.0488281 µg/mL (Homo sapiens, NCI-H460, Etoposide (A) 0.048828125 μg/ml single use, read-out: Inhibition rate): 17.2% | inhibition at 0.195312 µg/mL (Homo sapiens, NCI-H460, Etoposide (A) 0.1953125 μg/ml single use, read-out: Inhibition rate): 30.6% | inhibition at 0.78125 µg/mL (Homo sapiens, NCI-H460, Etoposide (A) 0.78125 μg/ml single use, read-out: Inhibition rate): 41.5% | inhibition at 3.125 µg/mL (Homo sapiens, NCI-H460, Etoposide (A) 3.125 μg/ml single use, read-out: Inhibition rate): 49.6% | inhibition at 12.5 µg/mL (Homo sapiens, NCI-H460, Etoposide (A) 12.5 μg/ml single use, read-out: Inhibition rate): 55% | inhibition at 50 µg/mL (Homo sapiens, NCI-H460, Etoposide (A) 50 μg/ml single use, read-out: Inhibition rate): 74.4%

CC[C@]1(O)C[C@H]2CN(CCc3c([nH]c4ccccc34)[C@@](C(=O)OC)(c3cc4c(cc3OC)N(C=O)[C@H]3[C@@](O)(C(=O)OC)[C@H](OC(C)=O)[C@]5(CC)C=CCN6CC[C@]43[C@@H]65)C2)C1 [Vincristine (B), vincristine]
dose range of the additive effect, vincristine (B) [1]: 0.2925 to 0.8781 µg/mL | Efficacy of B (B 0.00000763 μg/ml): 4.9016% | Efficacy of B (B 0.00003052 μg/ml): 4.9048% | Efficacy of B (B 0.00012207 μg/ml): 4.9268% | Efficacy of B (B 0.00048828 μg/ml): 5.0764% | Efficacy of B (B 0.00195313 μg/ml): 6.0768% | Efficacy of B (B 0.0078125 μg/ml): 12.0757% | Efficacy of B (B 0.03125 μg/ml): 33.3731% | Efficacy of B (B 0.125 μg/ml): 55.3101% | Efficacy of B (B 0.5 μg/ml): 61.7291% | Efficacy of B (B 2 μg/ml): 62.8101% | inhibition at 30.52 pg/mL (Homo sapiens, NCI-H460, Vincristine (B) 0.000030518 μg/ml single use, read-out: Inhibition rate): 2.75% | inhibition at 0.00012207 µg/mL (Homo sapiens, NCI-H460, Vincristine (B) 0.00012207 μg/ml single use, read-out: Inhibition rate): -0.11% | inhibition at 0.000488281 µg/mL (Homo sapiens, NCI-H460, Vincristine (B) 0.000488281 μg/ml single use, read-out: Inhibition rate): 13.2% | inhibition at 0.00195312 µg/mL (Homo sapiens, NCI-H460, Vincristine (B) 0.001953125 μg/ml single use, read-out: Inhibition rate): 8.91% | inhibition at 0.0078125 µg/mL (Homo sapiens, NCI-H460, Vincristine (B) 0.0078125 μg/ml single use, read-out: Inhibition rate): 6.25% | inhibition at 0.03125 µg/mL (Homo sapiens, NCI-H460, Vincristine (B) 0.03125 μg/ml single use, read-out: Inhibition rate): 37% | inhibition at 0.125 µg/mL (Homo sapiens, NCI-H460, Vincristine (B) 0.125 μg/ml single use, read-out: Inhibition rate): 53.2% | inhibition at 0.5 µg/mL (Homo sapiens, NCI-H460, Vincristine (B) 0.5 μg/ml single use, read-out: Inhibition rate): 55.9% | inhibition at 2 µg/mL (Homo sapiens, NCI-H460, Vincristine (B) 2 μg/ml single use, read-out: Inhibition rate): 65.8% | inhibition at 8 µg/mL (Homo sapiens, NCI-H460, Vincristine (B) 8 μg/ml single use, read-out: Inhibition rate): 66.3%

O=c1[nH]cc(F)c(=O)[nH]1 [5-fluorouracil (C), 5-fluorouracil]
dose range of the additive effect, 5-fluorouracil (C) [1]: 6.5815 to 19.7579 µg/mL | Efficacy of C (C 0.00017166 μg/ml): −2.8810% | Efficacy of C (C 0.00068665 μg/ml): −2.7475% | Efficacy of C (C 0.00274658 μg/ml): −2.3331% | Efficacy of C (C 0.01098633 μg/ml): −1.0631% | Efficacy of C (C 0.04394531 μg/ml): 2.6806% | Efficacy of C (C 0.17578125 μg/ml): 12.5608% | Efficacy of C (C 0.703125 μg/ml): 32.4840% | Efficacy of C (C 2.8125 μg/ml): 57.2443% | Efficacy of C (C 11.25 μg/ml): 74.5929% | Efficacy of C (C 45 μg/ml): 82.4752% | inhibition at 0.000686646 µg/mL (Homo sapiens, NCI-H460, 5-fluorouracil (C) 0.000686646 μg/ml single use, read-out: Inhibition rate): -0.33% | inhibition at 0.00274658 µg/mL (Homo sapiens, NCI-H460, 5-fluorouracil (C) 0.002746582 μg/ml single use, read-out: Inhibition rate): 6.67% | inhibition at 0.0109863 µg/mL (Homo sapiens, NCI-H460, 5-fluorouracil (C) 0.010986328 μg/ml single use, read-out: Inhibition rate): -3.78% | inhibition at 0.0439453 µg/mL (Homo sapiens, NCI-H460, 5-fluorouracil (C) 0.043945313 μg/ml single use, read-out: Inhibition rate): -6.89% | inhibition at 0.175781 µg/mL (Homo sapiens, NCI-H460, 5-fluorouracil (C) 0.17578125 μg/ml single use, read-out: Inhibition rate): 7.91% | inhibition at 0.703125 µg/mL (Homo sapiens, NCI-H460, 5-fluorouracil (C) 0.703125 μg/ml single use, read-out: Inhibition rate): 40% | inhibition at 2.8125 µg/mL (Homo sapiens, NCI-H460, 5-fluorouracil (C) 2.8125 μg/ml single use, read-out: Inhibition rate): 60.8% | inhibition at 11.25 µg/mL (Homo sapiens, NCI-H460, 5-fluorouracil (C) 11.25 μg/ml single use, read-out: Inhibition rate): 61.4% | inhibition at 45 µg/mL (Homo sapiens, NCI-H460, 5-fluorouracil (C) 45 μg/ml single use, read-out: Inhibition rate): 84.5% | inhibition at 180 µg/mL (Homo sapiens, NCI-H460, 5-fluorouracil (C) 180 μg/ml single use, read-out: Inhibition rate): 91%
